Measurements as given in the supplement of paper PMC10307832.

How the values were obtained:
Experiment in all cases: relative viability (nuclei count vs DMSO), 5 days (fraction); higher = more cells survive
NCI-H727 = test system: NCI-H727
Procedure, shortened: (§1)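 The day after seeding in 1536-well plates, lung cancer cell lines were treated by pin tool with a single drug, or with a fixed anchor-drug dose together with five library-drug doses (not always all listed) in √10 steps. After 5 days, a combined fix-and-stain solution (final 0.05% Triton X-100, 1% formaldehyde, 1 ug/ml Hoechst) was added. Nuclei counted on 4× images gave relative viability as treated counts over vehicle counts, reported as the median of duplicate plates.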

NCI-H650 = test system: NCI-H650
Procedure, shortened: as §1

NCI-H1755 = test system: NCI-H1755
Procedure, shortened: as §1

SW 900 = test system: SW 900
Procedure, shortened: as §1

NCI-H1437 = test system: NCI-H1437
Procedure, shortened: as §1

NCI-H2126 = test system: NCI-H2126
Procedure, shortened: as §1

NCI-H358 = test system: NCI-H358
Procedure, shortened: as §1

NCI-H2170 = test system: NCI-H2170
Procedure, shortened: as §1

NCI-H1734 = test system: NCI-H1734
Procedure, shortened: as §1

BEN = test system: BEN
Procedure, shortened: as §1

LU99A = test system: LU99A
Procedure, shortened: as §1

SW 1573 = test system: SW 1573
Procedure, shortened: as §1

HCC-44 = test system: HCC-44
Procedure, shortened: as §1

EMC-BAC-2 = test system: EMC-BAC-2
Procedure, shortened: as §1

NCI-H2023 = test system: NCI-H2023
Procedure, shortened: as §1

NCI-H3122 = test system: NCI-H3122
Procedure, shortened: as §1

LC-2-ad = test system: LC-2-ad
Procedure, shortened: as §1

HCC-15 = test system: HCC-15
Procedure, shortened: as §1

HOP-62 = test system: HOP-62
Procedure, shortened: as §1

NCI-H1915 = test system: NCI-H1915
Procedure, shortened: as §1

NCI-H1395 = test system: NCI-H1395
Procedure, shortened: as §1

In the case of CCNC(=O)c1noc(-c2cc(C(C)C)c(O)cc2O)c1-c1ccc(CN2CCOCC2)cc1 [Luminespib] + CC(=O)c1c(C)c2cnc(Nc3ccc(N4CCNCC4)cn3)nc2n(C2CCCC2)c1=O [Palbociclib] (partner 0.5 µM), the relative viability (NCI-H727; first compound 0.002 µM) is reported as 0.668, the relative viability (NCI-H727; first compound 0.006325 µM) is reported as 0.665 and the relative viability (NCI-H727; first compound 0.02 µM) is reported as 0.631. For the same compound, the relative viability (NCI-H727; first compound 0.06325 µM) was 0.45, the relative viability (NCI-H727; first compound 0.2 µM) was 0.424 and the relative viability (NCI-H650; first compound 0.002 µM) was 0.39. It also gave a relative viability (NCI-H650; first compound 0.006325 µM) of 0.283, a relative viability (NCI-H650; first compound 0.02 µM) of 0.277 and a relative viability (NCI-H650; first compound 0.06325 µM) of 0.181. For the same compound, the relative viability (NCI-H650; first compound 0.2 µM) was 0.0632, the relative viability (NCI-H1755; first compound 0.002 µM) was 0.51 and the relative viability (NCI-H1755; first compound 0.006325 µM) was 0.474. For the same compound, the relative viability (NCI-H1755; first compound 0.02 µM) was 0.44, the relative viability (NCI-H1755; first compound 0.06325 µM) was 0.462 and the relative viability (NCI-H1755; first compound 0.2 µM) was 0.373. The relative viability (SW 900; first compound 0.002 µM) was 0.577, the relative viability (SW 900; first compound 0.006325 µM) was 0.566 and the relative viability (SW 900; first compound 0.02 µM) was 0.549. For the same compound, the relative viability (SW 900; first compound 0.06325 µM) was 0.144, the relative viability (SW 900; first compound 0.2 µM) was 0.134 and the relative viability (NCI-H1437; first compound 0.002 µM) was 0.34. It also gave a relative viability (NCI-H1437; first compound 0.006325 µM) of 0.306, a relative viability (NCI-H1437; first compound 0.02 µM) of 0.309 and a relative viability (NCI-H1437; first compound 0.06325 µM) of 0.273. For the same compound, the relative viability (NCI-H1437; first compound 0.2 µM) was 0.22, the relative viability (NCI-H2126; first compound 0.002 µM) was 0.337 and the relative viability (NCI-H2126; first compound 0.006325 µM) was 0.325. For the same compound, the relative viability (NCI-H2126; first compound 0.06325 µM) was 0.351, the relative viability (NCI-H2126; first compound 0.2 µM) was 0.393 and the relative viability (NCI-H358; first compound 0.002 µM) was 0.135. For the same compound, the relative viability (NCI-H358; first compound 0.006325 µM) was 0.132, the relative viability (NCI-H358; first compound 0.02 µM) was 0.102 and the relative viability (NCI-H358; first compound 0.06325 µM) was 0.0751. It also gave a relative viability (NCI-H358; first compound 0.2 µM) of 0.0736, a relative viability (NCI-H2170; first compound 0.002 µM) of 0.41 and a relative viability (NCI-H2170; first compound 0.006325 µM) of 0.383. It also gave a relative viability (NCI-H2170; first compound 0.06325 µM) of 0.376, a relative viability (NCI-H2170; first compound 0.2 µM) of 0.315 and a relative viability (NCI-H1734; first compound 0.002 µM) of 0.359. For the same compound, the relative viability (NCI-H1734; first compound 0.006325 µM) was 0.389, the relative viability (NCI-H1734; first compound 0.02 µM) was 0.334 and the relative viability (NCI-H1734; first compound 0.06325 µM) was 0.204. For the same compound, the relative viability (NCI-H1734; first compound 0.2 µM) was 0.144, the relative viability (BEN; first compound 0.002 µM) was 0.472 and the relative viability (BEN; first compound 0.006325 µM) was 0.468. For the same compound, the relative viability (BEN; first compound 0.02 µM) was 0.438, the relative viability (BEN; first compound 0.06325 µM) was 0.409 and the relative viability (BEN; first compound 0.2 µM) was 0.323. For the same compound, the relative viability (LU99A; first compound 0.002 µM) was 0.369, the relative viability (LU99A; first compound 0.006325 µM) was 0.379 and the relative viability (LU99A; first compound 0.02 µM) was 0.272. For the same compound, the relative viability (LU99A; first compound 0.06325 µM) was 0.428, the relative viability (LU99A; first compound 0.2 µM) was 0.417 and the relative viability (SW 1573; first compound 0.002 µM) was 0.426. The relative viability (SW 1573; first compound 0.006325 µM) was 0.344, the relative viability (SW 1573; first compound 0.02 µM) was 0.396 and the relative viability (SW 1573; first compound 0.06325 µM) was 0.101. The relative viability (SW 1573; first compound 0.2 µM) was 0.0763, the relative viability (HCC-44; first compound 0.002 µM) was 0.942 and the relative viability (HCC-44; first compound 0.006325 µM) was 0.998. The relative viability (HCC-44; first compound 0.02 µM) was 1.09, the relative viability (HCC-44; first compound 0.06325 µM) was 0.986 and the relative viability (HCC-44; first compound 0.2 µM) was 0.858. It also gave a relative viability (EMC-BAC-2; first compound 0.002 µM) of 0.543, a relative viability (EMC-BAC-2; first compound 0.006325 µM) of 0.495 and a relative viability (EMC-BAC-2; first compound 0.02 µM) of 0.424. For the same compound, the relative viability (EMC-BAC-2; first compound 0.06325 µM) was 0.398, the relative viability (EMC-BAC-2; first compound 0.2 µM) was 0.31 and the relative viability (NCI-H2023; first compound 0.002 µM) was 0.423. It also gave a relative viability (NCI-H2023; first compound 0.006325 µM) of 0.364, a relative viability (NCI-H2023; first compound 0.02 µM) of 0.309 and a relative viability (NCI-H2023; first compound 0.06325 µM) of 0.0518. The relative viability (NCI-H2023; first compound 0.2 µM) was 0.0463, the relative viability (NCI-H3122; first compound 0.002 µM) was 0.173 and the relative viability (NCI-H3122; first compound 0.006325 µM) was 0.233. For the same compound, the relative viability (NCI-H3122; first compound 0.02 µM) was 0.173, the relative viability (NCI-H3122; first compound 0.06325 µM) was 0.197 and the relative viability (NCI-H3122; first compound 0.2 µM) was 0.196. For the same compound, the relative viability (LC-2-ad; first compound 0.002 µM) was 0.473, the relative viability (LC-2-ad; first compound 0.006325 µM) was 0.486 and the relative viability (LC-2-ad; first compound 0.02 µM) was 0.556. The relative viability (LC-2-ad; first compound 0.06325 µM) was 0.478, the relative viability (LC-2-ad; first compound 0.2 µM) was 0.331 and the relative viability (HCC-15; first compound 0.002 µM) was 0.815. It also gave a relative viability (HCC-15; first compound 0.006325 µM) of 0.776, a relative viability (HCC-15; first compound 0.02 µM) of 0.875 and a relative viability (HCC-15; first compound 0.06325 µM) of 0.321. The relative viability (HCC-15; first compound 0.2 µM) was 0.127, the relative viability (HOP-62; first compound 0.002 µM) was 0.451 and the relative viability (HOP-62; first compound 0.006325 µM) was 0.449. For the same compound, the relative viability (HOP-62; first compound 0.02 µM) was 0.594, the relative viability (HOP-62; first compound 0.06325 µM) was 0.384 and the relative viability (HOP-62; first compound 0.2 µM) was 0.235. The relative viability (NCI-H1915; first compound 0.002 µM) was 0.562, the relative viability (NCI-H1915; first compound 0.006325 µM) was 0.507 and the relative viability (NCI-H1915; first compound 0.02 µM) was 0.478. The relative viability (NCI-H1915; first compound 0.06325 µM) was 0.318, the relative viability (NCI-H1915; first compound 0.2 µM) was 0.24 and the relative viability (NCI-H1395; first compound 0.002 µM) was 0.645. For the same compound, the relative viability (NCI-H1395; first compound 0.006325 µM) was 0.631, the relative viability (NCI-H1395; first compound 0.02 µM) was 0.498 and the relative viability (NCI-H1395; first compound 0.06325 µM) was 0.338. The relative viability (NCI-H1395; first compound 0.2 µM) was 0.344.
